The record followed here is patent US4072689A, “Monoamino 2,4,5-trisubstituted oxazoles” (Gruppo Lepetit S.p.A., priority 1975, dated 1978).

Data set [1] relates to carrageenin induced edema. Briefly: carrageenin-induced edema test, oral administration. The data set is classed as in vivo, rats. The following applies: mice. The method, then:
The compounds of the invention have antiinflammatory activity. […] The compounds are orally administered at dosages varying from 10 to 200 mg/kg. and the observed percent decreases of the induced edema are between about 30 and about 65. The acute toxicity of these compounds is ordinarily very low, almost always being higher than 1000 mg/kg. Moreover the compounds of this invention are much less ulcerogenic than other known and wisely used anti-inflammatories, such as, for example, phenylbutazone.

Data set [2] can be described thus: acute toxicity, LD50 p.o. mice. Conditions: mouse, in vivo, po.

In the case of `Cc1nc(-c2ccccc2)oc1C(N)=O` [Example 1, 5-Carbamoyl-4-methyl-2-phenyloxazole], the “Percent inhibition of carrageenin induced edema” value in data set [1] (dose 50 mg/kg p.o.) amounted to 30%; in data set [1] (dose 100 mg/kg p.o.), 43%; in data set [1] (dose 200 mg/kg p.o.), 64%. For the same compound, the LD50 in data set [2] is over 1000 mg/kg.
`Cc1oc(-c2ccccc2)nc1C(N)=O` [Example 2, 4-Carbamoyl-5-methyl-2-phenyloxazole]: the “Percent inhibition of carrageenin induced edema” value in data set [1] (dose 50 mg/kg p.o.) turned out to be 29%; in data set [1] (dose 100 mg/kg p.o.) it was 42%; in data set [1] (dose 200 mg/kg p.o.), 53%. Also, the LD50 in data set [2] was over 1000 mg/kg.
